Assay results from US12161722B2, “Bifunctional heterocyclic compound having BTK degradation function via ubiquitin proteasome pathway, and use thereof” (KOREA RESEARCH INSTITUTE OF CHEMICAL TECHNOLOGY, priority 2021, dated 2024).

These compounds were tested against T1, WT BTK protein (Homo sapiens, UniProt Q06187) (assay: BTK protein degradation assay (Western blotting), WT BTK). Settings: concentration range accounting for 50% degradation of WT BTK protein, TMD-8 or RAMOS cells, 24 hours.
T1 construct: measured for intracellular BTK protein levels by Western blotting; endogenous in cells; host or cells: TMD-8 or RAMOS cells
T1 sequence (Q06187 whole entry): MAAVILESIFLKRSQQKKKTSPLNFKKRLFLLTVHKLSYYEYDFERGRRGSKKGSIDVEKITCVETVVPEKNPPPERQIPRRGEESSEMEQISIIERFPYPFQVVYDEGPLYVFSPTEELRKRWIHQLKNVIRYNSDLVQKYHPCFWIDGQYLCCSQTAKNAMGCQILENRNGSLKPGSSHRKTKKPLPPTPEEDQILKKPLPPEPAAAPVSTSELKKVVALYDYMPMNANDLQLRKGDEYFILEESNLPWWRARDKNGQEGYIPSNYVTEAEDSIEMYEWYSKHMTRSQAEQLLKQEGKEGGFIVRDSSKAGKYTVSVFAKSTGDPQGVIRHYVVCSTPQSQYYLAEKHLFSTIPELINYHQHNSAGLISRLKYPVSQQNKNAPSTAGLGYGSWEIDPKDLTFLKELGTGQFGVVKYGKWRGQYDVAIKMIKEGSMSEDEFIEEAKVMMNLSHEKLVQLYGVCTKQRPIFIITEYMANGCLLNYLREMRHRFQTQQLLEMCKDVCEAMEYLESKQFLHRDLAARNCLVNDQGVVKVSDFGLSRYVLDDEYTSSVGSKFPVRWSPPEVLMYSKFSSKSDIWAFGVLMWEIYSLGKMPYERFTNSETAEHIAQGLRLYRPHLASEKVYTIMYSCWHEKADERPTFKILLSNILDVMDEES
Type: cell-based
In short: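 TMD-8 cells (1×10^6 cells/mL) treated 24 h with compound serial dilutions, then lysed in RIPA. Equal protein loads analysed by Western blot for BTK with GAPDH/β-actin as loading controls; activity binned by concentration giving 50% WT BTK degradation.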
For `Cc1cccc(C)c1Nc1nn(C)c2nc(Nc3ccc(N4CCN(C[C@@H]5CCN(c6ccc7c(c6)C(=O)N(C6CCC(=O)NC6=O)C7=O)C5)CC4)nc3)ncc12` (stereo partly drawn) [Compound 155, 5-((S)-3-((4-(5-((3-((2,6-dimethylphenyl)amino)-1-methyl-1H-pyrazolo[3,4-d]pyrimidin-6-yl)amino)pyridin-2-yl)piperazin-1-yl)methyl)pyrrolidin-1-yl)-2-(2,6-dioxopiperidin-3-yl)isoindoline-1,3-dione], the DC50 was 0.1 to 10 nM. In the case of `Cc1cccc(C)c1Nc1nn(C)c2nc(Nc3ccc4c(c3)CN(C(=O)/C(C#N)=C/C3CCN(C(=O)C5CCN(c6ccc7c(c6)C(=O)N(C6CCC(=O)NC6=O)C7=O)CC5)CC3)CC4)ncc12` (stereo not drawn) [Compound 240, (E)-2-(7-((3-((2,6-Dimethylphenyl)amino)-1-methyl-1H-pyrazolo[3,4-d]pyrimidin-6-yl)amino)-1,2,3,4-tetrahydroisoquinoline-2-carbonyl)-3-(1-(1-(2-(2,6-dioxopiperidin-3-yl)-1,3-dioxoisoindolin-5-yl)piperidine-4-carbonyl)piperidin-4-yl)acrylonitrile], the DC50 is reported as 0.1 to 10 nM. `Cc1cccc(C)c1Nc1nn(C)c2nc(Nc3ccc4c(c3)CN(CCNc3ccc5c(c3)C(=O)N(C3CCC(=O)NC3=O)C5=O)CC4)ncc12` (stereo not drawn) [Compound 123, 5-((2-(7-((3-((2,6-Dimethylphenyl)amino)-1-methyl-1H-pyrazolo[3,4-d]pyrimidin-6-yl)amino)-3,4-dihydroisoquinolin-2 (1H)-yl)ethyl)amino)-2-(2,6-dioxopiperidin-3-yl)isoindoline-1,3-dione] gave a DC50 of 10 to 1000 nM. Compound `Cc1cccc(C)c1Nc1nn(C)c2nc(Nc3ccc4c(c3)CN(CC3(NC(=O)C5CCN(c6ccc7c(c6)C(=O)N(C6CCC(=O)NC6=O)C7=O)CC5)CC3)CC4)ncc12` (stereo not drawn) [Compound 204, N-(1-((7-((3-((2,6-dimethylphenyl)amino)-1-methyl-1H-pyrazolo[3,4-d]pyrimidin-6-yl)amino)-3,4-dihydroisoquinolin-2 (1H)-yl)methyl)cyclopropyl)-1-(2-(2,6-dioxopiperidin-3-yl)-1,3-dioxoisoindolin-5-yl)piperidine-4-carboxamide] has a DC50 of 0.1 to 10 nM. `Cc1cccc(C)c1Nc1nn(C)c2nc(Nc3ccc4c(c3)CN(CC3CCN(C(=O)CNc5ccc6c(c5)CN(C5CCC(=O)NC5=O)C6=O)CC3)CC4)ncc12` (stereo not drawn) [Compound 80, 3-(5-((2-(4-((7-((3-((2,6-Dimethylphenyl)amino)-1-methyl-1H-pyrazolo[3,4-d]pyrimidin-6-yl)amino)-3,4-dihydroisoquinolin-2 (1H)-yl)methyl)piperidin-1-yl)-2-oxoethyl)amino)-1-oxoisoindolin-2-yl)piperidin-2,6-one] showed a DC50 of 0.1 to 10 nM. In the case of `Cc1cccc(C)c1Nc1nn(C)c2nc(Nc3ccc4c(c3)CN(CC3CCN(C5CN(c6ccc7c(c6)C(=O)N(C6CCC(=O)NC6=O)C7=O)C5)CC3)CC4)ncc12` (stereo not drawn) [Compound 147, 5-(3-(4-((7-((3-((2,6-Dimethylphenyl)amino)-1-methyl-1H-pyrazolo[3,4-d]pyrimidin-6-yl)amino)-3,4-dihydroisoquinolin-2 (1H)-yl)methyl)piperidin-1-yl)azetidin-1-yl)-2-(2,6-dioxopiperidin-3-yl)isoindoline-1,3-dione], the DC50 is reported as 0.1 to 10 nM. `Cc1cccc(C)c1Nc1nn(C)c2nc(Nc3ccc4c(c3)CN(C[C@@H]3CCN(c5ccc6c(c5)C(=O)N(C5CCC(=O)NC5=O)C6=O)C3)CC4)ncc12` (stereo partly drawn) [Compound 145, 5-((S)-3-((7-((3-((2,6-Dimethylphenyl)amino)-1-methyl-1H-pyrazolo[3,4-d]pyrimidin-6-yl)amino)-3,4-dihydroisoquinolin-2 (1H)-yl)methyl)pyrrolidin-1-yl)-2-(2,6-dioxopiperidin-3-yl)isoindoline-1,3-dione] showed a DC50 of 0.1 to 10 nM. `Cc1cccc(C)c1Nc1nn(C)c2nc(Nc3ccc4c(c3)CN(CC3CCN(c5cc6c(cc5F)C(=O)N(C5CCC(=O)NC5=O)C6)CC3)CC4)ncc12` (stereo not drawn) [Compound 220, 3-(5-(4-((7-((3-((2,6-Dimethylphenyl)amino)-1-methyl-1H-pyrazolo[3,4-d]pyrimidin-6-yl)amino)-3,4-dihydroisoquinolin-2 (1H)-yl)methyl)piperidin-1-yl)-6-fluoro-1-oxoisoindolin-2-yl)piperidin-2,6-one] was tested, and the DC50 was 0.1 to 10 nM. For `Cc1cccc(C)c1Nc1nn(C)c2nc(Nc3ccc4c(c3)CN(C(=O)CN3CCC(Oc5ccc6c(c5)C(=O)N(C5CCC(=O)NC5=O)C6)CC3)CC4)ncc12` (stereo not drawn) [Compound 117, 3-(6-((1-(2-(7-((3-((2,6-dimethylphenyl)amino)-1-methyl-TH-pyrazolo[3,4-d]pyrimidin-6-yl)amino)-3,4-dihydroisoquinolin-2 (1H)-yl)-2-oxoethyl)piperidin-4-yl)oxy)-1-oxoisoindolin-2-yl)piperidin-2,6-one], the DC50 was 1000 to 10000 nM. In the case of `Cc1cccc(C)c1Nc1nn(C)c2nc(Nc3ccc4c(c3)CN(C(=O)/C(C#N)=C/C3CCN(C(=O)c5ccc6c(c5)CN(C5CCC(=O)NC5=O)C6=O)CC3)CC4)ncc12` (stereo not drawn) [Compound 259, (E)-2-(7-((3-((2,6-Dimethylphenyl)amino)-1-methyl-1H-pyrazolo[3,4-d]pyrimidin-6-yl)amino)-1,2,3,4-tetrahydroisoquinoline-2-carbonyl)-3-(1-(2-(2,6-dioxopiperidin-3-yl)-1-oxoisoindoline-5-carbonyl)piperidin-4-yl)acrylonitrile], the DC50 is reported as 10 to 1000 nM. Compound `Cc1cccc(C)c1Nc1nn(C)c2nc(Nc3ccc(C4CCN(C(=O)C5CCN(c6ccc7c(c6)n(C)c(=O)n7C6CCC(=O)NC6=O)CC5)CC4)cc3)ncc12` (stereo not drawn) [Compound 262, 3-(5-(4-(4-(4-((3-((2,6-Dimethylphenyl)amino)-1-methyl-1H-pyrazolo[3,4-d]pyrimidin-6-yl)amino)phenyl)piperidine-1-carbonyl)piperidin-1-yl)-3-methyl-2-oxo-2,3-dihydro-1H-benzo[d]imidazol-1-yl)piperidin-2,6-one] has a DC50 of 0.1 to 10 nM. `Cc1cccc(C)c1Nc1nn(C)c2nc(Nc3ccc(N4CCN(CC5CCN(c6ccc7c(c6)C(=O)N(C6CCC(=O)NC6=O)C7=O)CC5)CC4)cn3)ncc12` (stereo not drawn) [Compound 162, 5-(4-((4-(6-((3-((2,6-Dimethylphenyl)amino)-1-methyl-1H-pyrazolo[3,4-d]pyrimidin-6-yl)amino)pyridin-3-yl)piperazin-1-yl)methyl)piperidin-1-yl)-2-(2,6-dioxopiperidin-3-yl)isoindoline-1,3-dione] was tested, and the DC50 was 10 to 1000 nM. Compound `Cc1cccc(C)c1Nc1nn(C)c2nc(Nc3ccc4c(c3)CN(C(=O)C3CCN(c5ccc6c(=O)n(C7CCC(=O)NC7=O)nnc6c5)CC3)CC4)ncc12` (stereo not drawn) [Compound 69, 3-(7-(4-(7-((3-((2,6-Dimethylphenyl)amino)-1-methyl-1H-pyrazolo[3,4-d]pyrimidin-6-yl)amino)-1,2,3,4-tetrahydroisoquinoline-2-carbonyl)piperidin-1-yl)-4-oxobenzo[d][1,2,3]triazin-3 (4H)-yl)piperidin-2,6-one] has a DC50 of 10 to 1000 nM. For `Cc1cccc(C)c1Nc1nn(C)c2nc(Nc3ccc4c(c3)C(C)N(CC3CCN(c5ccc6c(c5)C(=O)N(C5CCC(=O)NC5=O)C6=O)CC3)CC4)ncc12` (stereo not drawn) [Compound 75, 5-(4-((7-((3-((2,6-Dimethylphenyl)amino)-1-methyl-1H-pyrazolo[3,4-d]pyrimidin-6-yl)amino)-1-methyl-3,4-dihydroisoquinolin-2 (1H)-yl)methyl)piperidin-1-yl)-2-(2,6-dioxopiperidin-3-yl)isoindoline-1,3-dione], the DC50 was 10 to 1000 nM. `Cc1cccc(C)c1Nc1nn(C)c2nc(Nc3ccc(CCNC(=O)C4CCN(c5ccc6c(c5)C(=O)N(C5CCC(=O)NC5=O)C6=O)CC4)cc3)ncc12` (stereo not drawn) [Compound 100, N-(4-((3-((2,6-dimethylphenyl)amino)-1-methyl-1H-pyrazolo[3,4-d]pyrimidin-6-yl)amino)phenethyl)-1-(2-(2,6-dioxopiperidin-3-yl)-1,3-dioxoisoindolin-5-yl)piperidine-4-carboxamide] gave a DC50 of 0.1 to 10 nM. Work on `Cc1cccc(C)c1Nc1nn(C)c2nc(Nc3ccc4c(c3)CN(C(=O)CNc3ccc5c(c3)CN(C3CCC(=O)NC3=O)C5=O)CC4)ncc12` (stereo not drawn) [Compound 81, 3-(5-((2-(7-((3-((2,6-Dimethylphenyl)amino)-1-methyl-1H-pyrazolo[3,4-d]pyrimidin-6-yl)amino)-3,4-dihydroisoquinolin-2 (1H)-yl)-2-oxoethyl)amino)-1-oxoisoindolin-2-yl)piperidin-2,6-one] yielded a DC50 of 0.1 to 10 nM. `Cc1cccc(C)c1Nc1nn(C)c2nc(Nc3ccc4c(c3)CN(CC3(O)CCN(c5ccc6c(n5)CN(C5CCC(=O)NC5=O)C6=O)CC3)CC4)ncc12` (stereo not drawn) [Compound 133, 3-(2-(4-((7-((3-((2,6-Dimethylphenyl)amino)-1-methyl-1H-pyrazolo[3,4-d]pyrimidin-6-yl)amino)-3,4-dihydroisoquinolin-2 (1H)-yl)methyl)-4-hydroxypiperidin-1-yl)-5-oxo-5,7-dihydro-6H-pyrrolo[3,4-b]pyridin-6-yl)piperidin-2,6-one] was tested, and the DC50 was 0.1 to 10 nM. Work on `Cc1cccc(C)c1Nc1nn(C)c2nc(Nc3ccc(CCNC(=O)C4CCN(C(=O)Nc5ccc6c(c5)CN(C5CCC(=O)NC5=O)C6=O)CC4)cc3)ncc12` (stereo not drawn) [Compound 102, N4-(4-((3-((2,6-Dimethylphenyl)amino)-1-methyl-1H-pyrazolo[3,4-d]pyrimidin-6-yl)amino)phenethyl)-N1-(2-(2,6-dioxopiperidin-3-yl)-1-oxoisoindolin-5-yl)piperidine-1,4-dicarboxamide] yielded a DC50 of 10 to 1000 nM.
